Experiments:
5-HT2A receptor [1] = molecular target: T1, 5-HT2A receptor (Homo sapiens, UniProt P28223); experiment: Functional cell-based 5-HT2A assay, agonism mode (CHO-K1/5-HT2A, Fluo-8 calcium flux); conditions: CHO-K1/5-HT2A cells
T1 construct: purchased PerkinElmer ES-313-M400UA
Experimental: Herein, functional, cell-based assays were conducted to determine (1) agonist potency and efficacy of drugs at the 5-HT2A receptor (agonist mode), and (2) antagonist potency at the 5-HT2A receptor (antagonist mode).
All cells were grown and maintained as a monolayer in Ham's F12 nutrient mix supplemented with 10% fetal bovine serum (FBS) and 400 μg/mL geneticin (G418) all from ThermoFisher Scientific and used according to the manufacturer's instructions. Cells were cultured and incubated at 37° C. in a humidified oxygen atmosphere with 5% CO2. To evaluate the activation of 5-HT2A signal transduction, cells were first seeded in tissue culture-treated, black-walled, clear-bottom 96-well plates (Thermo Scientific) at a density of 40,000 cells/well in 100 pl Ham's F12 nutrient mix supplemented with 2% FBS. Cells were cultured for 24 h in a humidified incubator at 37° C. and 5% CO2. Cells were then loaded with Fluo-8 calcium indicator dye for 1 h at 37° C. and an additional 30 min at room temperature as per the manufacturer's protocol. […] Kinetic increases in intracellular calcium levels were measured immediately after addition of test compounds every 6.4 s for a total of 3 min using the FlexStation 3 multimode microplate reader and SoftMax Pro 7.1 analysis software (Molecular Devices, moleculardevices.com). […] EC50 values were calculated from the normalized data from GraphPad PRISM software.

5-HT2A receptor [2] = molecular target: T1, 5-HT2A receptor; experiment: Functional cell-based 5-HT2A assay, antagonism mode (CHO-K1/5-HT2A, 100 nM serotonin, calcium flux); conditions: CHO-K1/5-HT2A cells, with 100 nM serotonin
Description: A variety of 5-HT2A receptor engagement modes have been correlated with positive outcomes in the treatment of neurological disorders. While agonism is associated with a host of favourable effects, antagonizing the 5-HT2A receptor is also an attractive pharmacological approach. For example, antagonism is known to alleviate both dyskinesisa and psychosis in Parkinson's Disorder and holds promise for other psychiatric diseases (Mestre et al., 2013, Expert Opin. Investig. Drugs 22:411-421). Similarly positive outcomes are noted for inverse agonists (Cummings et al., 2014, Lancet, 383:533-540; Roberts, 2006, Curr. Opin. Invest. Drugs 7:653-660). […]
Stimulation of 5-HT2A coupled to the Gq family proteins leads to activation of the phospholipase C (PLC) pathway, ultimately resulting in the accumulation of cytosolic calcium (Cussac et al., Europ. J. Pharmacol., 2008, 594 (1-3), 32-38). […] Kinetic increases in intracellular calcium levels were measured immediately after addition of ligands every 6.4 s for a total of 3 min using the FlexStation 3 multimode microplate reader and SoftMax Pro 7.1 analysis software (Molecular Devices, moleculardevices.com). […] IC50 values were calculated from the normalized data from GraphPad PRISM software. […]

[3] = test system: stressed C57BL/6-Elite mice; experiment: Mouse marble burying (MB) assay to assess anxiolytic potential; assay type: in vivo; conditions: i.p., psilocin 3 mg/kg, compound (XV) 10 mg/kg; vs Vehicle+Stress
Experimental: Marble burying behavior is used to measure the level of anxiety in a rodent when it encounters unfamiliar objects (Deacon, 2006, Nature Protocols 1:122-124). This assay is routinely applied to the study of chronically stressed mice, where drug candidates are evaluated for an ability to diminish stress-induced, anxiety-like behaviours (e.g., Wang et al., ACS Chem. Neurosci. 14:977-987). Positive results in this assay may be interpreted as an indication of therapeutic (anxiolytic) potential in the treatment of various psychiatric disorders. Herein, we applied the marble burying model to investigate whether selected drugs could alleviate anxiety behaviour in stressed mice.
All animal protocols were approved by the University of Calgary Animal Care and Use Committee. C57BL/6-Elite mixed sex mice were obtained from Charles River Laboratories (Toronto, Canada) at 8-9 weeks old. […]
On the testing days, 10 glass marbles (approx. 15 mm in diameter) were evenly spaced on 5 cm of wood-chip bedding (lightly tamped down to make a flat and even surface). […] The number of marbles buried to ⅔rds their depth was measured. Fully buried marbles were counted as 1 and partially (at least ⅔rds) buried marbles were counted as 0.5. […]

[4] = test system: stressed C57BL/6-Elite mice; experiment: Mouse sucrose preference (SP) assay to assess antidepressant potential; assay type: in vivo; conditions: i.p., psilocin 3 mg/kg, compound (XV) 10 mg/kg; one day after administration
Experimental: Reduced intake of pleasurable substances, e.g., of sucrose water, is a validated behavioral measure of anhedonic/depressive-like state in rodents (Moreau et al., 1992, Eur. Neurpsychopharmocol. 2:43-49; Liu et al., 2018, Nature Protocols 13:1686-1698). […] In the SP assay, cohorts of mice are pre-stressed, leading to a depressed state. The ability of drugs to rescue this state are evaluated.
All animal protocols were approved by the University of Calgary Animal Care and Use Committee. C57BL/6-Elite mixed sex mice were obtained from Charles River Laboratories (Toronto, Canada) at 8-9 weeks old. Mice were maintained on a 12:12 h light/dark schedule (lights on at 07:00 hours) with ad libitum access to food and water and group-housed until 2 days prior to the start of the mild chronic stress paradigm, then mice were single-housed. […]
Mice were introduced to 1% sucrose solution in their drinking water for 24 hrs for 2 days prior to initial sucrose preference testing to reduce impact of novelty. […] The consumption in water, sucrose solution, and total intake of liquids was measured by weighing each bottle before and after the 24-hr experiment. The preference for sucrose was calculated as a percentage of the consumed sucrose solution from the total intake of both water and sucrose solutions. […]

[5] = after intravenous (and oral) psilocybin administration (Raithatha et al., 2023); cited from earlier work

T1 sequence (P28223 whole entry): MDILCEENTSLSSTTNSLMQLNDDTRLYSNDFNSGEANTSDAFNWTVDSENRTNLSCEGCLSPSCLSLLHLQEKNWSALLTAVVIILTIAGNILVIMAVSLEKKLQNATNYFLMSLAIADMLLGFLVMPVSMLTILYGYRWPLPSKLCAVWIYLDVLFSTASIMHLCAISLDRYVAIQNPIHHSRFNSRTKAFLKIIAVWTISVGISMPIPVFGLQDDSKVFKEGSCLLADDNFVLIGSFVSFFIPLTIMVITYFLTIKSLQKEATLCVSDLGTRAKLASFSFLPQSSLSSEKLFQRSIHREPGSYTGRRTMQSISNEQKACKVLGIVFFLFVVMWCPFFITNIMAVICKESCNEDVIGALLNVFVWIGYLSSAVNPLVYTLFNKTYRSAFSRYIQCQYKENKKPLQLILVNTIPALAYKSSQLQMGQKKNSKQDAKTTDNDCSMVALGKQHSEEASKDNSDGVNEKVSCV

CN(C)CCc1c[nH]c2cccc(O)c12 [psilocin, reference compound]
engagement at the 5-HT2A receptor, agonist mode (5-HT2A receptor [1]): agonism
engagement at the 5-HT2A receptor, antagonist mode (5-HT2A receptor [2]): antagonism
anxiety-linked (marble burying) behavior in stressed mice [3]: rescued
sucrose preference behaviour in stressed mice vs no drug control [4]: significantly elevated
persistence in plasma [5]: > 8 h
